Test results from ChEMBL document CHEMBL1201862, “PubChem BioAssay data set” (2004).
The source made the active and inactive calls.

Key:
[1] = CMV-driven luciferase expression suppression in HEK293 – cell-based, luminescence, dry powder, counter-screen for Pax8 inhibitor project, dose response (AID 743020); assay type: functional
[2] = viability of uninfected HEp-2 cells – cell-based, HTS, cytotoxicity control for RSV inhibitor project, dose response (AID 2410); assay type: functional; details: human respiratory syncytial virus
[3] = molecular target: Tyrosine-protein phosphatase non-receptor type 11 (Homo sapiens, UniProt Q06124); assay: PTPN11 enzyme inhibitors – biochemical, selectivity assay for STEP inhibitor project, dose response (AID 602367); assay type: functional; details: read-out: IC50_Mean
[4] = molecular target: Dual specificity protein phosphatase 3 (Homo sapiens, UniProt P51452); assay: VHR phosphatase inhibition, dose response, selectivity assay for STEP inhibitor project, biochemical (AID 602374); assay type: functional; details: read-out: IC50_Mean
Chain of Dual specificity protein phosphatase 3 (P51452 whole entry): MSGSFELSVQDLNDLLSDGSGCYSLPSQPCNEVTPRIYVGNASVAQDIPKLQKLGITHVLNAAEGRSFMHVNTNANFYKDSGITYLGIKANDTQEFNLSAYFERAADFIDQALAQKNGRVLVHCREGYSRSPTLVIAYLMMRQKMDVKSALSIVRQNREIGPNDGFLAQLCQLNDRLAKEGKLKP

[5] = molecular target: Tyrosine-protein phosphatase non-receptor type 5 (Homo sapiens, UniProt P54829); assay: PTPN5 enzyme inhibition – biochemical, fluorescence intensity, uHTS hits, confirmation (AID 602372); assay type: functional; details: read-out: IC50_Mean
[6] = molecular target: Histone-lysine N-methyltransferase NSD2 (Homo sapiens, UniProt O96028); assay type: biochemical
Chain of Histone-lysine N-methyltransferase NSD2 (O96028 whole entry): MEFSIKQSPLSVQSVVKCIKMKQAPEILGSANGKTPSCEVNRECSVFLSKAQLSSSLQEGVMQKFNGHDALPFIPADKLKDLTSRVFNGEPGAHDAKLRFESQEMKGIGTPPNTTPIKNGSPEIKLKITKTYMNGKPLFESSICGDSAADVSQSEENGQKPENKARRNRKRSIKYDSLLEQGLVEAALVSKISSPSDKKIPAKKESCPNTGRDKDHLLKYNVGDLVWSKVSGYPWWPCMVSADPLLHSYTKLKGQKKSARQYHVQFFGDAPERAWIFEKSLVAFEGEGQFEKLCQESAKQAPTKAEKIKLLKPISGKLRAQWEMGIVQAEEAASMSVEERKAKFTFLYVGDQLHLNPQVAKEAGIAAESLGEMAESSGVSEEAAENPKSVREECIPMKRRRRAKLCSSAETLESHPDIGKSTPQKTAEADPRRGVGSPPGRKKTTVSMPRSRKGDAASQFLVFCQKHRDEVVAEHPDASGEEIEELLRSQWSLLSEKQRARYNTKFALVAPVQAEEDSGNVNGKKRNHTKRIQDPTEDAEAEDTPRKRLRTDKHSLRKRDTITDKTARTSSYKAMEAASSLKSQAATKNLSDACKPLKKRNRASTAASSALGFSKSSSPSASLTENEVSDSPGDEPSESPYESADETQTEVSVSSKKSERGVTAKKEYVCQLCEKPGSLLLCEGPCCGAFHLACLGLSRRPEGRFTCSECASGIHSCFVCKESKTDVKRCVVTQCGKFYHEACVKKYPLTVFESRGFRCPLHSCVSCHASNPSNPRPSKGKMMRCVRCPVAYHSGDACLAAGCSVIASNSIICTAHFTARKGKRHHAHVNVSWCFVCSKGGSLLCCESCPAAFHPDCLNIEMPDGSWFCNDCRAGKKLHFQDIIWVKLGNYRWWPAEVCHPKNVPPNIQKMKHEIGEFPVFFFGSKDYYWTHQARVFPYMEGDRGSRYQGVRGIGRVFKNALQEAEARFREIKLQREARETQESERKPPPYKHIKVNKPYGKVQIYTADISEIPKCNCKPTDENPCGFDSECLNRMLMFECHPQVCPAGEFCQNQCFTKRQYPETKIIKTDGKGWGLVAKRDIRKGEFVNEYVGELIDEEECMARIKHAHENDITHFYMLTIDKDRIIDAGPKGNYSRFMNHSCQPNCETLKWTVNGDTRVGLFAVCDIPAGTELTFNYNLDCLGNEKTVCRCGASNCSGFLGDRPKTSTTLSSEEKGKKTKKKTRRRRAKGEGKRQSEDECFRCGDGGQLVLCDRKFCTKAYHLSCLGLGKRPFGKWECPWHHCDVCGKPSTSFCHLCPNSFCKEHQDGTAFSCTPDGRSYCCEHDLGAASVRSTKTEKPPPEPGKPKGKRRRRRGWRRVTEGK

[7] = molecular target: T1, Tyrosine-protein phosphatase non-receptor type 22 (Homo sapiens, UniProt Q9Y2R2); assay: lymphoid phosphatase LYP inhibitors – biochemical, selectivity assay for STEP inhibitor project, dose response (AID 624241); assay type: functional
T1 sequence (Q9Y2R2 whole entry): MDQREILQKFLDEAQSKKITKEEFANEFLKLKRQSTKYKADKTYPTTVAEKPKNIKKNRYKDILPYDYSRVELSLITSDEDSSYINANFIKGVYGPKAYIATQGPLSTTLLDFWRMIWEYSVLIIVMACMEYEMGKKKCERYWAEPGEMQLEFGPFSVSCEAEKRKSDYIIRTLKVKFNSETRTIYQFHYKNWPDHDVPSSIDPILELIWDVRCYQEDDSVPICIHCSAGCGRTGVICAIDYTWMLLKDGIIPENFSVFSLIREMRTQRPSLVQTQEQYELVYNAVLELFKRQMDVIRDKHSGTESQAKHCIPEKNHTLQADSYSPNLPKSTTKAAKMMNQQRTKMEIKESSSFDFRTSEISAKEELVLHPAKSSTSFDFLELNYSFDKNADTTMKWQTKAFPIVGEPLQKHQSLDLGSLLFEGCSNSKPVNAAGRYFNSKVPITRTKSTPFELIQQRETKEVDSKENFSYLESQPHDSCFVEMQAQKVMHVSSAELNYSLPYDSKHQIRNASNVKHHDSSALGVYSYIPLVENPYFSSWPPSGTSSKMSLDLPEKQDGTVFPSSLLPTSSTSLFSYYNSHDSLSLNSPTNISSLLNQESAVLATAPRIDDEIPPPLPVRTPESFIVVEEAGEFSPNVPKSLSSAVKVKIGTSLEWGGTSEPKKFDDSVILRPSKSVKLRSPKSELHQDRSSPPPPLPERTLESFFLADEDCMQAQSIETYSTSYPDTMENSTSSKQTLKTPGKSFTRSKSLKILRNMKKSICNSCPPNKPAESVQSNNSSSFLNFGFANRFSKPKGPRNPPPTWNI

[8] = microbe, parasite or virus in culture; assay type: functional; details: Mycobacterium tuberculosis
[9] = molecular target: Fructose-bisphosphate aldolase (Mycobacterium tuberculosis, UniProt P9WQA3); assay: Fluorescence-based biochemical high throughput dose response assay for inhibitors of the fructose-bisphosphate aldolase (FBA) of M. tuberculosis.; assay type: functional
[10] = molecular target: Protein Wnt-3a (Mus musculus, UniProt P27467); assay: SAR analysis of small molecule antagonists of Gli-SUFU in a Wnt3a luminescent reporter assay.; assay type: functional
Chain of Protein Wnt-3a (P27467 whole entry): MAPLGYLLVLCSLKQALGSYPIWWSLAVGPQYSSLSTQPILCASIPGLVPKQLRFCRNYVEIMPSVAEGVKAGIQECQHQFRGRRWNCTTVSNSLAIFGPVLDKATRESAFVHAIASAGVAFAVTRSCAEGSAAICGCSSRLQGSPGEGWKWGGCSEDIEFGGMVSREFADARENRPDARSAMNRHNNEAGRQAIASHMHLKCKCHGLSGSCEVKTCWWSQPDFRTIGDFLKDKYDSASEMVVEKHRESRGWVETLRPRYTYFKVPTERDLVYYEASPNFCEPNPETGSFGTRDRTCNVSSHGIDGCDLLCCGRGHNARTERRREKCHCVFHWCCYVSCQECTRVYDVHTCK

[11] = T. cruzi growth inhibition in host cells, dose response, cell-based, plate reader, dry powder, set 2 (AID 652275); assay type: functional
[12] = rescue of ΔF508 CFTR function, airway epithelium – human bronchial epithelial cells, plate reader, cherry-pick, two tests, dose response (AID 743267); assay type: functional, cell-based
[13] = molecular target: Matrix metalloproteinase-14 (Homo sapiens, UniProt P50281); assay: Dose Response confirmation of uHTS hits for a small molecule inhibitors of MT1-MMP activation in a fluorescence assay set 1.; assay type: functional
[14] = viability of HT1080 fibrosarcoma cells – cell-based, ATPLite luminescence, set 1, cytotoxicity control for MT1-MMP activation inhibitor project, dose response (AID 652252); assay type: functional
[15] = tested on: A549; assay: viability loss in A549 cells – cell-based, plate reader, cherry-pick samples, cytotoxicity control, dose response (AID 687028); assay type: functional; details: Homo sapiens
[16] = molecular target: T2, Nuclear receptor subfamily 0 group B member 1 (Homo sapiens, UniProt P51843); assay type: functional, cell-based;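 also: HEK293T cells transfected with SF-1 and DAX-1 plus StAR promoter luciferase reporter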
T2 sequence (P51843 whole entry): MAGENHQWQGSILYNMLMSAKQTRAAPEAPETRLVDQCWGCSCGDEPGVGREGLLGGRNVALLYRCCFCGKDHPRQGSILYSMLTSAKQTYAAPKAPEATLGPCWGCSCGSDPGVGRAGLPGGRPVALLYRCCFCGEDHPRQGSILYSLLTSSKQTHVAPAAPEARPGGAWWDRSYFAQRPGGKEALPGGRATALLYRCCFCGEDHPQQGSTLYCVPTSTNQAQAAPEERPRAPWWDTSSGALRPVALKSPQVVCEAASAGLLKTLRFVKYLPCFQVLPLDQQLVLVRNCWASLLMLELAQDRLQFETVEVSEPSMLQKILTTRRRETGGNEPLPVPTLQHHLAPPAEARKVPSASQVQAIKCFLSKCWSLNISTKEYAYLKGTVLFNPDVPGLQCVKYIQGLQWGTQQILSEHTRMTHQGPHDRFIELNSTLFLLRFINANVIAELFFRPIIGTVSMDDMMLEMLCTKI

[17] = tested on: HEK293; assay: EBV LMP1 TES2 canonical NF-kB signalling blockers – cell-based, HEK293, luciferase, cherry-pick, dose response (AID 588343); assay type: functional; details: Homo sapiens
[18] = cells; assay type: functional, cell-based
[19] = toxicity toward HepG2 liver cells – cell-based, plate reader, cherry-pick, antagonist series, cytotoxicity control, dose response (AID 743416); assay type: functional
[20] = tested on: Streptococcus sp. 'group A'; assay: Streptococcus pyogenes SK(-)GAS viability under kanamycin – luminescence, BacTiterGlo, confirmation, counter-screen for streptokinase expression inhibitor project, dose response (AID 1900); assay type: functional, organism-based
[21] = tested on: Streptococcus; assay: GAS UMAA2166 growth inhibition – luminescence, BacTiterGlo, counter-screen for streptokinase expression inhibitor project, dose response (AID 1915); assay type: functional, organism-based;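 also: potency for reduction of bacterial viability or growth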
[22] = A549 cell cytotoxicity, dose response, cytotoxicity control, plate reader, cherry-pick, antagonist series (AID 743412); assay type: functional, cell-based
[23] = blockers of bursicon-stimulated LGR2 cAMP reporter – cell-based, HEK293, CRE-luciferase reporter, cherry pick, set 2, dose response (AID 743343); assay type: functional;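 also: transfected cells were stimulated with diluted bursicon conditioned medium after compound addition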
[24] = blockade of melanocortin 4 receptor signaling – cell-based, plate reader, cherry pick, counter-screen for LGR2 antagonist project, dose response (AID 743444); assay type: functional;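 also: transfected HEK 293 cells stimulated with alpha-MSH peptide; potency of inhibitors of the alpha-MSH evoked signal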
[25] = molecular target: Latent membrane protein 1 (Human herpesvirus 4 (strain B95-8), UniProt P03230); assay: LMP1 TES1 pathway selectivity over dsRED control – imaging, HEK293T, dual-color eGFP/dsRED, cherry-picks, selectivity assay for LMP1 NF-kB inhibitor project, dose response (AID 588398); assay type: functional, cell-based
[26] = viability loss in HEK293 cells – cell-based, plate reader, cherry-picked samples, cytotoxicity control, dose response (AID 743446); assay type: functional
[27] = molecular target: Beta-galactosidase (Escherichia coli, UniProt Q8VNN2); assay type: functional
Chain of Beta-galactosidase (Q8VNN2 whole entry, the tested form may be a part): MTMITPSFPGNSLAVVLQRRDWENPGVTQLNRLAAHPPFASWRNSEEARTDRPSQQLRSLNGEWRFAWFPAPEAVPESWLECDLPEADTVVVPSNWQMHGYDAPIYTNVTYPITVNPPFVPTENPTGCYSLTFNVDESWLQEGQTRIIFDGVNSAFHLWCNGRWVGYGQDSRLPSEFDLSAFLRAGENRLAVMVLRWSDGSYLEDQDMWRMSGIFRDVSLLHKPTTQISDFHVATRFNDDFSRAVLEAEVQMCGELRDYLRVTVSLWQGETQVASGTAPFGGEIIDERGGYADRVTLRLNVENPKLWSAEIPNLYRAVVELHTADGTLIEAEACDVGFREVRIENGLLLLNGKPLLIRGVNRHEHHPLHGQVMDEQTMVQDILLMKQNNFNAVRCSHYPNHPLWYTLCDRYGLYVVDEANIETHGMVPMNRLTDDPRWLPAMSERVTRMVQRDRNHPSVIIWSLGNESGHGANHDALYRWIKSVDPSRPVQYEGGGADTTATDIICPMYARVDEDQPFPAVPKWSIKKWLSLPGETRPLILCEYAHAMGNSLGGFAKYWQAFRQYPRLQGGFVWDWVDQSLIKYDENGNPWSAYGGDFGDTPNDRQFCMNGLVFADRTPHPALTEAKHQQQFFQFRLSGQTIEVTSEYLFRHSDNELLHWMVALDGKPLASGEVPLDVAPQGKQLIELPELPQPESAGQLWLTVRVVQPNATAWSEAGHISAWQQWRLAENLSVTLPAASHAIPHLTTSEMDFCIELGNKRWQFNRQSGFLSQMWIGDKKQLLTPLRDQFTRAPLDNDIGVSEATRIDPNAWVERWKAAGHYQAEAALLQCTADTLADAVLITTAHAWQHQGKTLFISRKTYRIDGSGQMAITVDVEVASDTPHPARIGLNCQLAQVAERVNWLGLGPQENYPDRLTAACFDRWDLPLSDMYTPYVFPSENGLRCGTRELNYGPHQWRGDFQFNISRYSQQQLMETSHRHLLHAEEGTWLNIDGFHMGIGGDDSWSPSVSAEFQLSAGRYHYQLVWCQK

[28] = molecular target: T3, Disintegrin and metalloproteinase domain-containing protein 17 (Homo sapiens, UniProt P78536); assay: exosite inhibitors of ADAM17, dose response, biochemical (AID 743260)
T3 sequence (P78536 whole entry, the tested form may be a part): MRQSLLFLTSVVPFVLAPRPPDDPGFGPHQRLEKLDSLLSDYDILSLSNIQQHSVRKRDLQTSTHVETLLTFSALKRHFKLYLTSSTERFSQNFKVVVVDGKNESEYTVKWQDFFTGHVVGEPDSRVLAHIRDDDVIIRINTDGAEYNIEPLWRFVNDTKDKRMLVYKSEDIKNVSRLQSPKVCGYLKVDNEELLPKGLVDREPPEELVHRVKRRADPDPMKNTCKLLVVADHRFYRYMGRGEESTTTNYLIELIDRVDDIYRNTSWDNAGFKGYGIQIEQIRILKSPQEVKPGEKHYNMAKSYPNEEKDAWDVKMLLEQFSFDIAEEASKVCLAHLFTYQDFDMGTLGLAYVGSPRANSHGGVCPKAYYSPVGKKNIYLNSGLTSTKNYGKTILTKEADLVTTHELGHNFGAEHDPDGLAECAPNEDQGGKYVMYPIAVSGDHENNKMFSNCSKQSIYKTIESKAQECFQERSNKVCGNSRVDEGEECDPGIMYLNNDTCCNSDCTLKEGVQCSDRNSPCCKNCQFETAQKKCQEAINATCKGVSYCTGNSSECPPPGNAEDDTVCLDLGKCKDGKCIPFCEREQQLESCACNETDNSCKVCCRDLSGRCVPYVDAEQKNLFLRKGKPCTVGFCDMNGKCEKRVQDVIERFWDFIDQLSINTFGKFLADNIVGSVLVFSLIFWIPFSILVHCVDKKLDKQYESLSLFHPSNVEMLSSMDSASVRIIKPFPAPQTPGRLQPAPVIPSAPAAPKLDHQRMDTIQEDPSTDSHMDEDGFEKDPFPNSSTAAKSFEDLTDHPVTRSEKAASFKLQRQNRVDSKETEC

[29] = molecular target: T4, Kappa-type opioid receptor (Homo sapiens, UniProt P41145); assay type: functional
T4 sequence (P41145 whole entry): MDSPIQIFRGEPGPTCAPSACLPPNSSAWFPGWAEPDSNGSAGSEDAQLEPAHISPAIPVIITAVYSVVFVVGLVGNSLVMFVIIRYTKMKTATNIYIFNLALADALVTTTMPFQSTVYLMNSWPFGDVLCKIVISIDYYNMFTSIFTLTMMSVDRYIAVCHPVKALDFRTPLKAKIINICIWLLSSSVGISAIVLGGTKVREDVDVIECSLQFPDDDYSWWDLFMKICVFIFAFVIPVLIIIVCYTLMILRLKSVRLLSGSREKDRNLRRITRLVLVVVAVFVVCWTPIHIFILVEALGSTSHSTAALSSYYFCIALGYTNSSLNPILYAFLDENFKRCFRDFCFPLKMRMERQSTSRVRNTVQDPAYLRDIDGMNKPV

[30] = molecular target: T4, Kappa-type opioid receptor; assay type: functional; remark: listed apart in the source
[31] = potency of ADAM10 substrate cleavage blockers – biochemical, QFRET, dose response (AID 743254);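 also: ADAM10 enzyme with the DM2 quenched FRET peptide as substrate; EDANS fluorescence gain as the protease cuts the substrate; inhibitor potency against ADAM10 proteolytic activity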
[32] = molecular target: T3, Disintegrin and metalloproteinase domain-containing protein 17; assay: inhibition of ADAM17 substrate cleavage – biochemical, quenched FRET substrate, counter-screen for ADAM10 exosite inhibitor project, dose response (AID 743253)
[33] = cells; assay type: functional, cell-based; remark: listed apart in the source
[34] = cells; assay type: functional, cell-based; remark: listed apart in the source
[35] = NIH3T3 cell viability loss – ATP luminescence, mouse fibroblasts, counter-screen, dose response (AID 2010); assay type: functional, cell-based;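 also: cells exposed to compound for about 90 hours before reading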
[36] = Trypanosoma cruzi growth suppression in host cells – NIH3T3 host cells, beta-gal luminescence, confirmation (AID 2044); assay type: functional, cell-based;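 also: intracellular parasites grown in NIH/3T3 mouse fibroblasts as host cells; luminescent beta-galactosidase reporter signal from transgenic T. cruzi replicating inside host cells; inhibitors lower the luminescence signal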
[37] = molecular target: Glucose-6-phosphate 1-dehydrogenase (Homo sapiens, UniProt P11413); assay: inhibition of Homo sapiens G6PD, dose series – biochemical, fluorescence, selectivity assay for P. falciparum G6PD inhibitor project, dose response (AID 504792); assay type: functional
Chain of Glucose-6-phosphate 1-dehydrogenase (P11413 whole entry): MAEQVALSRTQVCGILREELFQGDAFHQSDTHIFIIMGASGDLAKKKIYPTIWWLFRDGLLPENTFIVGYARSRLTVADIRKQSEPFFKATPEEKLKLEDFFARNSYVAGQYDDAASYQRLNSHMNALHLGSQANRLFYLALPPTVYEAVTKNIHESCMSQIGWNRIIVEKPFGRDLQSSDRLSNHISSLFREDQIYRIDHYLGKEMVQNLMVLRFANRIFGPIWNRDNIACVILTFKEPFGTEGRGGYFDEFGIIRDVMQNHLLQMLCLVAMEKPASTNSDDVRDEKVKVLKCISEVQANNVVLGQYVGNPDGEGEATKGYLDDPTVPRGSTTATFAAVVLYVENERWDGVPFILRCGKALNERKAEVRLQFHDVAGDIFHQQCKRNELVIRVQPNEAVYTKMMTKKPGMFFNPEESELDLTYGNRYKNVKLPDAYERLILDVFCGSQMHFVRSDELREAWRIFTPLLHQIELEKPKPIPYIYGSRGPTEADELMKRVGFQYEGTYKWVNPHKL

[38] = molecular target: Tyrosyl-DNA phosphodiesterase 2 (Homo sapiens, UniProt O95551); assay: potency against TDP2 phosphodiesterase activity – biochemical, epi absorbance, IC50, dose response (AID 743297)
Chain of Tyrosyl-DNA phosphodiesterase 2 (O95551 whole entry): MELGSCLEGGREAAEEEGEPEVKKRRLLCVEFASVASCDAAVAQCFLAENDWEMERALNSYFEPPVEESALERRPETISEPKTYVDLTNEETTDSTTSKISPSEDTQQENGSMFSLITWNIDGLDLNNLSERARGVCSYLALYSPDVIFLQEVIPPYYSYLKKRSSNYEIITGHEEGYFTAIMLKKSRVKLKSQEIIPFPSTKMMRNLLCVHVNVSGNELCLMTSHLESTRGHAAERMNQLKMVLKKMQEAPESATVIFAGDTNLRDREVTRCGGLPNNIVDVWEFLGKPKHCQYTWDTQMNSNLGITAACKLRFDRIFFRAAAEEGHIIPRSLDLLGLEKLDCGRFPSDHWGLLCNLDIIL

[39] = human cervical cancer cell viability loss – 24 h, plate reader, dry powder, cytotoxicity control, dose response (AID 686928); assay type: functional, cell-based; details: HeLa
[40] = tested on: HeLa; assay: viability loss in HeLa cells – cell-based, ATP luminescence, cherry-pick samples, cytotoxicity control, dose response (AID 687004); assay type: functional; details: Homo sapiens
[41] = Late stage assay provider results from the probe development effort to identify selective inhibitors of heat shock protein 90 (HSP90): Absorbance-based cell proliferation assay in SKBR3 cells.; assay type: functional; details: SK-BR-3
[42] = Late stage assay provider results from the probe development effort to identify selective inhibitors of heat shock protein 90 (HSP90): Absorbance-based cell proliferation assay in MCF7 cells.; assay type: functional

Structure (SMILES): Cc1nn(CCO)c2nc(-c3cccs3)cc(C(F)(F)F)c12
- AC50 [1]: 26.3 µM (active)
- CC50 [2]: > 50 µM (active)

Structure (SMILES): CC(=O)c1ccc(S(=O)(=O)Nc2cccc(-n3cnnn3)c2)cc1
- IC50 [3]: 0.526 µM (active)
- IC50 [4]: 1.51 µM (active)
- IC50 [5]: 17.4 µM (active)
- AC50 [6]: 12.9 µM (active)
- IC50 [7]: 11.4 µM (active)

Structure (SMILES): C(=C\c1nccc2c1[nH]c1ccccc12)/c1ccccc1
- CC50 [8]: 25.4 µM (active)
- IC50 [9]: > 0.37 µM (active)

Structure (SMILES): O=C(Nc1cc(N2CCCCC2)ncn1)c1cc2ccccc2s1
- IC50 [10]: > 21.8 µM (inactive)

Structure (SMILES): CC(C)N1C[C@@H](CN(C)CCc2ccc(Cl)cc2)Oc2c(NC(=O)c3ccncc3)cccc2C1=O
- AC50 [11]: 0.000332 µM (active)

Structure (SMILES): COc1cccc(-c2cc3nc(-c4ccccc4)cc(O)n3n2)c1
- AC50 [12]: 2.35 µM (active)

Structure (SMILES): O=C(CF)NC(Nc1cccc2cccnc12)C(Cl)(Cl)Cl (stereo not drawn)
- IC50 [13]: 2.03 µM (active)
- IC50 [14]: > 10 µM (active)

Structure (SMILES): Cc1cccc(OCC(=O)NNC(=O)C2CCCCC2C(=O)O)c1 (stereo not drawn)
- AC50 [15]: 26.4 µM (active)

Structure (SMILES): COc1ccc(-c2cc3nc4n(c(=O)c3s2)CCC4)cc1
- IC50 [16]: > 0.278 µM (active)
- AC50 [17]: 1.48 µM (active)
- IC50 [18]: > 67.5 µM (inactive)
- AC50 [19]: > 52 µM (inactive)
- EC50 [20]: 0.706 µM (active)
- EC50 [21]: 2.48 µM (active)
- AC50 [22]: > 52 µM (inactive)
- AC50 [23]: 2.53 µM (active)
- AC50 [24]: 2.65 µM (active)
- AC50 [25]: 28 µM (active)
- AC50 [26]: 36.4 µM (active)

Structure (SMILES): COCC/N=c1\scc(-c2cc(OC)ccc2OC)n1/N=C/c1c[nH]c2ccccc12
- EC50 [27]: > 31.5 µM (inactive)
- IC50 [28]: > 69.5 µM (inactive)
- IC50 [29]: 9.65 µM (active)
- IC50 [30]: 3.86 µM
- IC50 [31]: > 69.5 µM (inactive)
- IC50 [32]: > 69.5 µM (inactive)

Structure (SMILES): COc1ccc(Nc2cc(C)c3c(O)cccc3n2)cc1
- EC50 [33]: > 29.9 µM (inactive)
- IC50 [34]: > 29.9 µM (inactive)
- EC50 [35]: > 60 µM (inconclusive)
- CC50 [2]: 22.6 µM (active)
- EC50 [36]: 1.94 µM (active)
- IC50 [37]: 56.3 µM (inactive)

Structure (SMILES): Cc1cccc2cc(C=C3C(=O)NC(=O)NC3=O)c(O)nc12
- IC50 [38]: > 128 µM (inactive)

Structure (SMILES): Cc1cc2nc3c(cc2cc1F)c(NC(=O)c1ccco1)nn3C
- AC50 [39]: > 200 µM (inactive)

Structure (SMILES): COC(=O)C1=C(C)N(Cc2ccc(F)cc2)C(=S)NC1c1ccc(Cl)cc1 (stereo not drawn)
- AC50 [40]: > 52 µM (inactive)

Structure (SMILES): COc1ccc(CCN/C=C2/C=C(Br)C(=O)OC2=O)cc1
- IC50 [41]: 5.7 µM (active)
- IC50 [42]: 1.8 µM (active)
